Tested on: G3BP1 NFT2
Type: binding, human
Conditions: library DMS-CoV, bait G3BP1 NFT2, prey N, listed as aa = residue placed at this position, column sums to 1

Sequence: RNAPRITFGGPSDSTG D13A (RNAPRITFGGPSASTG)
- DMS PSSM value, D (position 13) (peptide RNAPRITFGGPSDSTG): 0

Sequence: APRITFGGPSDSTGSN F6W (APRITWGGPSDSTGSN)
- DMS PSSM value, F (position 6) (peptide APRITFGGPSDSTGSN): 0

Sequence: APRITFGGPSDSTGSN G7W (APRITFWGPSDSTGSN)
- DMS PSSM value, G (position 7) (peptide APRITFGGPSDSTGSN): 0

Sequence: RNAPRITFGGPSDSTG T15M (RNAPRITFGGPSDSMG)
- DMS PSSM value, T (position 15) (peptide RNAPRITFGGPSDSTG): 0

Sequence: RNAPRITFGGPSDSTG I6K (RNAPRKTFGGPSDSTG)
- DMS PSSM value, I (position 6) (peptide RNAPRITFGGPSDSTG): 0

Sequence: APRITFGGPSDSTGSN T5K (APRIKFGGPSDSTGSN)
- DMS PSSM value, T (position 5) (peptide APRITFGGPSDSTGSN): 0

Sequence: APRITFGGPSDSTGSN F6S (APRITSGGPSDSTGSN)
- DMS PSSM value, F (position 6) (peptide APRITFGGPSDSTGSN): 0

Sequence: RNAPRITFGGPSDSTG G9P (RNAPRITFPGPSDSTG)
- DMS PSSM value, G (position 9) (peptide RNAPRITFGGPSDSTG): 0

Sequence: RNAPRITFGGPSDSTG S14P (RNAPRITFGGPSDPTG)
- DMS PSSM value, S (position 14) (peptide RNAPRITFGGPSDSTG): 0

Sequence: RNAPRITFGGPSDSTG I6F (RNAPRFTFGGPSDSTG)
- DMS PSSM value, I (position 6) (peptide RNAPRITFGGPSDSTG): 0

Sequence: RNAPRITFGGPSDSTG T7M (RNAPRIMFGGPSDSTG)
- DMS PSSM value, T (position 7) (peptide RNAPRITFGGPSDSTG): 0

Sequence: RNAPRITFGGPSDSTG R5D (RNAPDITFGGPSDSTG)
- DMS PSSM value, R (position 5) (peptide RNAPRITFGGPSDSTG): 0.0001605

Sequence: RNAPRITFGGPSDSTG A3K (RNKPRITFGGPSDSTG)
- DMS PSSM value, A (position 3) (peptide RNAPRITFGGPSDSTG): 0

Sequence: APRITFGGPSDSTGSN G14V (APRITFGGPSDSTVSN)
- DMS PSSM value, G (position 14) (peptide APRITFGGPSDSTGSN): 0.009945

Sequence: APRITFGGPSDSTGSN G8T (APRITFGTPSDSTGSN)
- DMS PSSM value, G (position 8) (peptide APRITFGGPSDSTGSN): 0.001267

Sequence: APRITFGGPSDSTGSN G8H (APRITFGHPSDSTGSN)
- DMS PSSM value, G (position 8) (peptide APRITFGGPSDSTGSN): 0

Sequence: APRITFGGPSDSTGSN S12I (APRITFGGPSDITGSN)
- DMS PSSM value, S (position 12) (peptide APRITFGGPSDSTGSN): 0.4295

Sequence: APRITFGGPSDSTGSN G14H (APRITFGGPSDSTHSN)
- DMS PSSM value, G (position 14) (peptide APRITFGGPSDSTGSN): 0.009284

Sequence: APRITFGGPSDSTGSN F6I (APRITIGGPSDSTGSN)
- DMS PSSM value, F (position 6) (peptide APRITFGGPSDSTGSN): 0

Sequence: APRITFGGPSDSTGSN D11P (APRITFGGPSPSTGSN)
- DMS PSSM value, D (position 11) (peptide APRITFGGPSDSTGSN): 0.007134

Sequence: RNAPRITFGGPSDSTG A3V (RNVPRITFGGPSDSTG)
- DMS PSSM value, A (position 3) (peptide RNAPRITFGGPSDSTG): 0

Sequence: APRITFGGPSDSTGSN S15D (APRITFGGPSDSTGDN)
- DMS PSSM value, S (position 15) (peptide APRITFGGPSDSTGSN): 0.002282

Sequence: APRITFGGPSDSTGSN S12K (APRITFGGPSDKTGSN)
- DMS PSSM value, S (position 12) (peptide APRITFGGPSDSTGSN): 0

Sequence: RNAPRITFGGPSDSTG F8H (RNAPRITHGGPSDSTG)
- DMS PSSM value, F (position 8) (peptide RNAPRITFGGPSDSTG): 0

Sequence: APRITFGGPSDSTGSN R3V (APVITFGGPSDSTGSN)
- DMS PSSM value, R (position 3) (peptide APRITFGGPSDSTGSN): 0.00164

Sequence: RNAPRITFGGPSDSTG T15H (RNAPRITFGGPSDSHG)
- DMS PSSM value, T (position 15) (peptide RNAPRITFGGPSDSTG): 0

Sequence: APRITFGGPSDSTGSN I4H (APRHTFGGPSDSTGSN)
- DMS PSSM value, I (position 4) (peptide APRITFGGPSDSTGSN): 0

Sequence: APRITFGGPSDSTGSN S10L (APRITFGGPLDSTGSN)
- DMS PSSM value, S (position 10) (peptide APRITFGGPSDSTGSN): 0.002677

Sequence: APRITFGGPSDSTGSN T13S (APRITFGGPSDSSGSN)
- DMS PSSM value, T (position 13) (peptide APRITFGGPSDSTGSN): 9.878e-5

Sequence: APRITFGGPSDSTGSN S15L (APRITFGGPSDSTGLN)
- DMS PSSM value, S (position 15) (peptide APRITFGGPSDSTGSN): 0.01038

Sequence: RNAPRITFGGPSDSTG T15Q (RNAPRITFGGPSDSQG)
- DMS PSSM value, T (position 15) (peptide RNAPRITFGGPSDSTG): 0

Sequence: RNAPRITFGGPSDSTG P4L (RNALRITFGGPSDSTG)
- DMS PSSM value, P (position 4) (peptide RNAPRITFGGPSDSTG): 0

Sequence: APRITFGGPSDSTGSN T5L (APRILFGGPSDSTGSN)
- DMS PSSM value, T (position 5) (peptide APRITFGGPSDSTGSN): 0.04693

Sequence: APRITFGGPSDSTGSN P2I (AIRITFGGPSDSTGSN)
- DMS PSSM value, P (position 2) (peptide APRITFGGPSDSTGSN): 0

Sequence: APRITFGGPSDSTGSN F6K (APRITKGGPSDSTGSN)
- DMS PSSM value, F (position 6) (peptide APRITFGGPSDSTGSN): 0

Sequence: APRITFGGPSDSTGSN D11G (APRITFGGPSGSTGSN)
- DMS PSSM value, D (position 11) (peptide APRITFGGPSDSTGSN): 0

Sequence: RNAPRITFGGPSDSTG G10R (RNAPRITFGRPSDSTG)
- DMS PSSM value, G (position 10) (peptide RNAPRITFGGPSDSTG): 0

Sequence: APRITFGGPSDSTGSN G7Q (APRITFQGPSDSTGSN)
- DMS PSSM value, G (position 7) (peptide APRITFGGPSDSTGSN): 0.005359

Sequence: RNAPRITFGGPSDSTG D13K (RNAPRITFGGPSKSTG)
- DMS PSSM value, D (position 13) (peptide RNAPRITFGGPSDSTG): 0

Sequence: RNAPRITFGGPSDSTG F8Q (RNAPRITQGGPSDSTG)
- DMS PSSM value, F (position 8) (peptide RNAPRITFGGPSDSTG): 0

Sequence: RNAPRITFGGPSDSTG G10V (RNAPRITFGVPSDSTG)
- DMS PSSM value, G (position 10) (peptide RNAPRITFGGPSDSTG): 0

Sequence: RNAPRITFGGPSDSTG I6W (RNAPRWTFGGPSDSTG)
- DMS PSSM value, I (position 6) (peptide RNAPRITFGGPSDSTG): 0

Sequence: RNAPRITFGGPSDSTG F8T (RNAPRITTGGPSDSTG)
- DMS PSSM value, F (position 8) (peptide RNAPRITFGGPSDSTG): 0

Sequence: APRITFGGPSDSTGSN P2N (ANRITFGGPSDSTGSN)
- DMS PSSM value, P (position 2) (peptide APRITFGGPSDSTGSN): 0

Sequence: RNAPRITFGGPSDSTG G16T (RNAPRITFGGPSDSTT)
- DMS PSSM value, G (position 16) (peptide RNAPRITFGGPSDSTG): 0

Sequence: RNAPRITFGGPSDSTG T7I (RNAPRIIFGGPSDSTG)
- DMS PSSM value, T (position 7) (peptide RNAPRITFGGPSDSTG): 0

Sequence: APRITFGGPSDSTGSN S15P (APRITFGGPSDSTGPN)
- DMS PSSM value, S (position 15) (peptide APRITFGGPSDSTGSN): 0.1504

Sequence: RNAPRITFGGPSDSTG G16K (RNAPRITFGGPSDSTK)
- DMS PSSM value, G (position 16) (peptide RNAPRITFGGPSDSTG): 0

Sequence: RNAPRITFGGPSDSTG P4V (RNAVRITFGGPSDSTG)
- DMS PSSM value, P (position 4) (peptide RNAPRITFGGPSDSTG): 0

Sequence: RNAPRITFGGPSDSTG G9Q (RNAPRITFQGPSDSTG)
- DMS PSSM value, G (position 9) (peptide RNAPRITFGGPSDSTG): 0

Sequence: RNAPRITFGGPSDSTG D13F (RNAPRITFGGPSFSTG)
- DMS PSSM value, D (position 13) (peptide RNAPRITFGGPSDSTG): 0

Sequence: RNAPRITFGGPSDSTG A3D (RNDPRITFGGPSDSTG)
- DMS PSSM value, A (position 3) (peptide RNAPRITFGGPSDSTG): 0.1526

From PMC12102759 (Protein Science : A Publication of the Protein Society, 2025)
